This is an account of results in ChEMBL document CHEMBL1135829, “Investigations on estrogen receptor binding. The estrogenic, antiestrogenic, and cytotoxic properties of C2-alkyl-substituted 1,1-bis(4-hydroxyphenyl)-2-phenylethenes” (J Med Chem, 2002).

Assay [1] has as its target T1, Estrogen receptor (Homo sapiens, UniProt P03372).
T1 sequence (P03372 whole entry): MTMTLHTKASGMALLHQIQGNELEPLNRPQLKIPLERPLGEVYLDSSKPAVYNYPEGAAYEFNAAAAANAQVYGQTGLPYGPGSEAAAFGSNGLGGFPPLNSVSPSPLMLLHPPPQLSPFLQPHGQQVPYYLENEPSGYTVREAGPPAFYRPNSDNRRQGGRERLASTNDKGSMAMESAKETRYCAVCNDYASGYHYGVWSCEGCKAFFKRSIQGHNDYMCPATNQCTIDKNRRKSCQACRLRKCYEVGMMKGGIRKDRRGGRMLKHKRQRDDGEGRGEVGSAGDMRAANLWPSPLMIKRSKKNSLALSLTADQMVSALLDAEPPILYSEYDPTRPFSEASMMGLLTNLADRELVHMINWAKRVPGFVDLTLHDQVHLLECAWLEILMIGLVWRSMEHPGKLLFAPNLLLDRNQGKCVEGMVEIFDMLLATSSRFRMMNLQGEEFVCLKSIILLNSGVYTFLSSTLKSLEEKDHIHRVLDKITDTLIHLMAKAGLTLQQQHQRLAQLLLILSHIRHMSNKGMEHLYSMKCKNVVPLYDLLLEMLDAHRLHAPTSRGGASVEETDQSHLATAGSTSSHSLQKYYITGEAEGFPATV
The experiment in a line: Antiestrogenic activity in MCF-7-2a cells as concentration required to reduce estradiol effect by 50%. In kind it is functional, cell-based.

Assay [2] has as its system MCF-7 (Homo sapiens). The assay can be described thus: Cytotoxicity against MCF-7 cells at 5 uM.
Assay [3] concerns MCF-7 (Homo sapiens). The experiment in a line: Antitumor activity against MCF-7 cells at 5 uM.

Usually IC50 stands for the point on the concentration scale where inhibition reaches its midpoint. The compound `CCC(=C(c1ccc(O)cc1)c1ccc(O)cc1)c1ccccc1` yielded an IC50 in assay [1] of 0.015 µM. The compound also registered a Cytotoxicity in assay [2] of 99%.
For `CC(=C(c1ccc(O)cc1)c1ccc(O)cc1)c1ccccc1` the same measures were 0.03 µM and 90%.
On to `CCCCC(=C(c1ccc(O)cc1)c1ccc(O)cc1)c1ccccc1`, for which, in assay [1], half-maximal inhibition (IC50) was put at 0.5 µM. The compound also displayed a Cytotoxicity in assay [3] of 87%.
Consider `Oc1ccc(C(=C(CC(F)(F)F)c2ccccc2)c2ccc(O)cc2)cc1`, for which the IC50 in assay [1] came out at 0.009 µM. Besides, the Cytotoxicity in assay [2] is on record as 68%.
Regarding `CCCC(=C(c1ccc(O)cc1)c1ccc(O)cc1)c1ccccc1`, the IC50 in assay [1] turned out to be 0.05 µM. In assay [2], this compound had a Cytotoxicity of 98%.
`Oc1ccc(C(=Cc2ccccc2)c2ccc(O)cc2)cc1`: the IC50 in assay [1] worked out at 0.15 µM. In assay [3], this compound registered a Cytotoxicity of 92%.
In assay [1], `CC/C(=C(\c1ccccc1)c1ccc(O)cc1)c1ccccc1` had an IC50 of 0.007 µM. Moreover, the Cytotoxicity in assay [3] turned out to be 25%.
In the case of `CC/C(=C(\c1ccccc1)c1ccc(OCCN(C)C)cc1)c1ccccc1` [TAMOXIFEN], in assay [3], the Cytotoxicity is 15%.
